Experimental data as given in the METLIN SMRT retention time set (Domingo-Almenara et al. 2019).

Assay: gradient 5% acetonitrile 3 min, to 50% in 2 min, to 85% in 15 min, held 3 min, 100 µL/min
Conditions: column: Zorbax Extend-C18 2.1 x 50 mm; eluents: water / acetonitrile, 0.1% formic acid
Method in brief: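 Pure standards were analyzed in mixtures of ~100 molecules using HPLC coupled to a quadrupole time-of-flight mass spectrometer, in both positive and negative ionization mode. Separation used a Zorbax Extend-C18 column (2.1 × 50 mm, 1.8 μm) at 100 μL/min, with water and acetonitrile each containing 0.1% formic acid. Dead and dwell volumes were 40 μL and 900 μL, and data were collected over 3 months. Retention time was read from computationally picked adduct peaks, each inspected manually.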

SMILES | RP-LC retention time [s]
Cc1ccc(Nc2nc(C)cc(N3CCN(S(=O)(=O)c4ccc(C(F)(F)F)cc4)CC3)n2)cc1 | 851
CCc1cccc2c1[nH]c1cc(NC(=O)CCc3c(C)[nH]c(=O)[nH]c3=O)ccc12 | 677
Cc1ccc(C)c(CNC(=O)c2ccc3ncnc(N4CCCC4)c3c2)c1 | 678
Cc1cccc(CNS(=O)(=O)c2cn(CC(C)C)c3ncccc23)c1 | 993
Cc1ccc(S(=O)(=O)N2CCC(c3nc(-c4cccc(-c5ccn[nH]5)c4)no3)CC2)cc1 | 971
COc1cccc(N2CCN(c3nnc(-c4nnc(C)o4)c4ccccc34)CC2)c1 | 922
COC(=O)c1c(C)[nH]c(C(=O)N2CCCC(C(=O)NCCN(C)C3CCCCC3)C2)c1C (stereo not given) | 626
CCN1CCN(C(=O)C2CCCN(c3ncnc4c3nc3n4CCCCC3)C2)CC1 (stereo not given) | 575
COc1ccc(Cc2nc3nccc(-c4ccc(F)cc4)n3n2)cc1 | 882
CNc1ncnc2c1cnn2C1CCCCO1 (stereo not given) | 635
COCCN1CC(CO)C2(CCN(Cc3ccc(OC)cc3OC)CC2)C1 (stereo not given) | 540
COc1ccc(C2Cn3nnc(-c4nc(-c5ccc(F)c(Br)c5)no4)c3CO2)cc1 (stereo not given) | 1180
O=C1CCN(C(=O)C2CCN(C(=O)CC3CCCC3)CC2)CCCCCCN1 | 686
CCc1nc2cc(N3CCC(C(=O)NCc4ccc(OC)cc4)CC3)cnc2nc1CC | 833
Cc1ncc2c(n1)C[C@@H]1CC[C@H]2N1C(=O)Nc1ccc(F)cc1F | 649
CC1CCN(CCNc2ccc(-c3nc(-c4ccc(F)cc4)no3)cn2)CC1 | 777
Clc1ccccc1-c1nc(-c2cccc(-c3ccn[nH]3)c2)no1 | 1040
CN(CCNC(=O)c1cc(=O)n(C)c2c1c(=O)n(C)c(=O)n2C)C1CCCCC1 | 624
O=C(CC1CCCN(c2cn[nH]c(=O)c2)C1)N1CCC2(CC1)OCCO2 (stereo not given) | 604
Fc1ccc(-c2nc(-c3ccc(-n4cccn4)nc3)no2)c(Cl)c1 | 1300

SMILES | RP-LC retention time [s]
CCOc1ccc(CNC(=O)Cn2cnc3onc(C)c3c2=O)cc1 | 755
COc1cccc(S(=O)(=O)N2CCC(n3cnnc3C3CC3)CC2)c1 | 695
CCCNC(=O)C1CCN(c2nc3ccsc3c(=O)n2-c2ccc(C)cc2)CC1 | 756
Cc1cc(C)cc(C(=O)NCCc2nc3cccnc3n2C(C)C)c1 | 744
COc1ccc(-c2nnc(-c3cc(S(=O)(=O)N4CCC(C(=O)O)CC4)ccc3Cl)o2)cc1 | 875
CCCn1cc(CCNS(=O)(=O)c2ccc(C)cc2)c2cccnc21 | 841
CCCC(=O)Nc1ccc(S(=O)(=O)NCC(C)(O)COC)cc1 (stereo not given) | 619
O=C1N(c2cccc(F)c2)c2ncccc2S(=O)(=O)N1Cc1ccc(F)cc1 | 1040
CCc1nc(N2CCCC2=O)sc1C(=O)Nc1ccc(OC)c(Cl)c1 | 905
CCn1nc(C)c(CCNC(=O)c2ccc3nc(C(C)C)oc3c2)c1C | 662
N#Cc1cc2c(OCC(O)CN3CCN(C(c4ccccc4)c4ccccc4)CC3)cccc2[nH]1 (stereo not given) | 819
CCN1C(=O)c2cc(S(=O)(=O)Nc3ccc(F)c(Cl)c3)ccc2Oc2cccnc21 | 1090
COc1ccc(-c2noc(-c3nnn4c3COC(c3ccc(C)cc3C)C4)n2)cc1F (stereo not given) | 1260
Cc1ccc(Nc2c(-c3ccc(Cl)cc3)nc3ccccn23)cc1 | 787
CCN(CC)c1ncc2c(n1)CCC(C(=O)N1CCN(c3ccc(C)cc3)CC1)C2 (stereo not given) | 793
Cc1ccc(-n2ccc(=O)c(-c3nc(-c4cccc(Cl)c4)no3)n2)cc1 | 1030
COc1ccc2nc(NC(=O)C3CCN(C(=O)c4ccc(-c5noc(C)n5)cc4)CC3)sc2c1 | 803
Cc1cc(F)ccc1NS(=O)(=O)c1cc2n(c1)CCN(CC(C)C)C2=O | 828
CN(Cc1cccs1)C(=O)NC(C)(C)C | 817

Continued, values first:

RP-LC retention time [s] | SMILES
731 | CC1CCN(CCCNc2nc3ccncc3n(Cc3ccccc3)c2=O)CC1
1230 | Cc1ccc(-c2csc(NC(=O)Cc3csc(-c4ccccc4)n3)n2)cc1C
818 | O=C(NCCC1CCN(C(=O)Nc2cc(F)ccc2F)CC1)c1cccs1
756 | CCNC(=O)N1CCc2c([nH]c3ccccc23)C12C(=O)N(C)c1ccccc12 (stereo not given)
681 | NC(=O)C1(c2ccccc2F)CC1
770 | CSc1nnc(-c2cccc(S(=O)(=O)N3CCCC3)c2)o1
850 | COC(=O)c1ccc(NC(=O)C2c3cc(F)ccc3CCN2C(=O)OC)cc1 (stereo not given)
929 | CCOc1ccccc1NC(=O)Cn1nc(N2CCSCC2)c2ccccc2c1=O
644 | Cc1nnc2c(NC(=O)C3CCCC3)cccn12
602 | Cc1cc(S(=O)(=O)N2CC(c3nc(-c4ccccc4)nn3C)C2)ccc1F
1010 | O=c1c2cnn(-c3ccc(F)cc3)c2ncn1Cc1nc(-c2ccccc2)no1
891 | Cc1onc(-c2ccccc2Cl)c1C(=O)OCn1nnc2ccccc2c1=O
864 | CCN(Cc1cn(C)nc1C)C(=O)c1cc2c(=O)n(CC(C)C)c3ccccc3n2n1
827 | Cc1nnc(-c2cn(CC(=O)NCCCc3ccccc3)c3ccccc23)o1
868 | O=C(Cc1csc2nc(-c3ccccc3)cn12)Nc1ccc(Cl)cc1
728 | CC1=C(c2ccccc2)S(=O)(=O)N=C1N1CCCN(C(=O)c2ccoc2)CC1
1140 | O=C(NCc1cccc(C(F)(F)F)c1)c1ccnc(N2CCCCC2)n1
609 | CCOc1ccc(NC(=O)c2cnc(N3CCN(CC)CC3)nc2N)cc1
780 | O=C(c1cc2ccccc2[nH]1)N1CCN2CCS(=O)(=O)N(C3CC3)C(=O)C2C1 (stereo not given)
824 | Cc1nnc(-c2nnc(N3CCC(C)CC3)c3ccccc23)o1
811 | Cc1ccccc1CNC(=O)c1cc2n(n1)CCCC2
703 | Cc1nc(S(=O)(=O)N2CCc3c(c(-c4nnc(-c5ccccc5F)o4)nn3C)C2)cn1C
868 | O=C(NCc1ccccc1F)C1=C2CCCN2c2ccc(F)cc2S1(=O)=O
912 | COc1ccccc1CNC(=O)C1CN(C(=O)c2cccs2)CC12CCCCC2 (stereo not given)
757 | O=C(NCc1nnnn1C1CCCCC1)OCc1ccccc1
606 | CCC(=O)Nc1ccc(C2(C(=O)NCCN3CCCC3)CCCCC2)cc1

RP-LC retention time [s] | SMILES
818 | CN1c2ccc(Cl)cc2C(=O)NC12CCN(C(=O)NC1CCCCC1)CC2
1280 | CCOc1nc2ccccc2nc1N1CCCC(C(=O)N2CCN(c3ccccc3)CC2)C1 (stereo not given)
789 | COc1cccc(N2C(=O)CC(c3ccc(OC)c(OC)c3)CC2=O)c1
603 | CCCC(=O)Nc1nc2ccc(CCC(=O)N3CCN(c4ccccn4)CC3)cc2s1
1100 | COc1cccc(NC(=O)C2CCCN(c3nc4ccccc4nc3OC)C2)c1 (stereo not given)
1040 | CC(=O)N1CCc2c([nH]c3ccccc23)C12C(=O)N(CCC(C)C)c1ccc(Br)cc12 (stereo not given)
901 | Cc1nc(-c2csc(S(=O)(=O)N3CCCC(C(=O)NCCc4ccccc4)C3)c2)no1 (stereo not given)
556 | CN(C)C(=O)c1cc2c(s1)CCC(C(=O)N1CCN(Cc3ccccc3)CC1)C2 (stereo not given)
537 | CN(Cc1nc2ccccc2[nH]1)C(=O)c1ccco1
642 | COc1cccc(CNC(=O)NCCc2cn(C)c3ncccc23)c1
866 | C[C@H]1CN(C(=O)Nc2ccc3c(c2)CCC3)C[C@@H]1c1nc(-c2cccnc2)no1
752 | Cn1cc(S(=O)(=O)N2CCC(C(=O)NCc3ccccc3Cl)CC2)cc1C(=O)N1CCCC1
918 | Cc1cccc(N2CCN(C(=O)C3CCN(C(=O)C4Sc5ccccc5NC4=O)CC3)CC2)c1C (stereo not given)
742 | CCNC(=O)N1CCc2c(c(-c3nc(Cc4ccccc4)no3)nn2C)C1
680 | COCc1nc2cccnc2n1C1CCN(C(=O)Nc2ccccc2)CC1
621 | CCc1ccc2[nH]c3c(c(=O)c2c1)CN(CC(=O)NCc1ccccc1OC)CC3
853 | CCC(C)NC(=O)Nc1cc2c(cc1Oc1ccccc1)n(C)c(=O)n2C (stereo not given)
1010 | Cc1cc(C(=O)Nc2ccc(Cl)cc2)nc2ccnn12
1140 | CC1=NS(=O)(=O)N(Cc2ccccc2)C=C1C(=O)OCc1cccc(C)c1
973 | CC(C)N1C(=O)C(C)(C(=O)Nc2ccccc2F)Oc2cccnc21 (stereo not given)
962 | CC(C)C(NC(=O)C1CCCN(S(=O)(=O)Cc2ccccc2)C1)C(C)C (stereo not given)
675 | O=C(c1ccc(Cl)s1)N1CCN(c2nnc3ccccn23)CC1
886 | Cc1cccc(Sc2nccnc2N2CCC(C(=O)NC3CC3)CC2)c1
1070 | CC(=O)Nc1ccc(C)cc1S(=O)(=O)N1CCC2(CC1)Nc1ccc(C)c(C)c1-n1cccc12
751 | O=C(NCc1ccccc1Cl)C(=O)Nc1cccc(N2CCCCC2=O)c1
